Measured values taken from article PMC11222147, “Host defence peptide plectasin targets bacterial cell wall precursor lipid II by a calcium-sensitive supramolecular mechanism” (Nature Microbiology, 2024).
Read-outs that look alike come from different tables or passages of the source.

Columns and labels:
[1] = tested on: S. pneumoniae ATCC6305; assay: MIC assays under standard conditions; format: cell-based, Streptococcus pneumoniae; conditions: Supplementary Table 1; cation-adjusted MHB + 5% lysed horse blood, 5% CO2, 20–24 h
In short: (§1)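 Broth microdilution in cation-adjusted MHB, inoculum from OD600 0.5 TSB culture diluted 100-fold, 37 °C with shaking. Streptococci: 5% lysed horse blood, 5% CO2, MIC read visually at 20–24 h; S. simulans read at 16–20 h.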

[2] = tested on: S. pneumoniae serotype 8; assay: MIC assays under standard conditions; format: cell-based, Streptococcus pneumoniae; conditions: Supplementary Table 1; cation-adjusted MHB + 5% lysed horse blood, 5% CO2, 20–24 h
In short: as §1

[3] = tested on: S. pyogenes M3; assay: MIC assays under standard conditions; format: cell-based, Streptococcus pyogenes; conditions: Supplementary Table 1; cation-adjusted MHB + 5% lysed horse blood, 5% CO2, 20–24 h
Protocol: Plectasin and analogues were serially diluted in cation-adjusted Mueller–Hinton broth (MHB) in round-bottom polypropylene 96-well plates (50 µl per well). Selected bacterial strains were grown from glycerol stocks on blood agar plates. Individual colonies were inoculated in TSB and incubated at 37 °C while shaking until OD600 reached 0.5. Bacterial suspensions were then diluted 100 times in cation-adjusted MHB and distributed (50 μl per well) over the microplate containing the diluted plectasin solutions. Plates were covered by a gas-permeable adhesive membrane and incubated at 37 °C while shaking. MICs were determined by visual inspection after 16–20 h (Staphylococcus) or 20–24 h (Streptococcus). For Streptococcus strains, the broth was additionally supplemented with 5% lysed horse blood, and the microplates were incubated under 5% CO2 atmosphere. In the assays, we used the following strains: S. simulans, S. pneumoniae serotype 8, S. pneumoniae ATCC6305 and Streptococcus pyogenes M3.

[4] = tested on: S. simulans 22; format: cell-based, Staphylococcus simulans; conditions: for MIC: cation-depleted MHB + 0.5 mM MgCl2 + 10 µM ZnSO4
Protocol: Cation-depleted MHB was prepared as previously described[18] and supplemented with MgCl2 (0.5 mM) and ZnSO4 (10 µM). Plectasin was serially diluted twofold over a 96-well polypropylene plate. Serial dilutions of Ca^2+ in calcium-depleted medium were subsequently added to the wells containing the plectasin dilution series, followed by addition of bacterial suspensions. MICs were determined by visual inspection after 16–20 h (Staphylococcus). The effect of reduced Ca^2+ levels on S. simulans growth in the absence of plectasin was assessed by monitoring growth at 37 °C by OD600 over 18 h (Supplementary Fig. 4).

[5] = ITC of bivalent cation binding to plectasin in solution; conditions: mean of duplicate, read-out: Kd, Ca^2+ binding to plectasin (ITC)
[6] = as above; conditions: mean of duplicate, read-out: Kd, Mg^2+ binding to plectasin (ITC)
[7] = tested on: S. simulans; assay: Bacterial permeabilization assay (DiSC2(5), SYTOX green); format: cell-based, Staphylococcus simulans; conditions: DiSC2(5) and SYTOX green, concentrations higher than the MIC, 20 °C
Protocol: Overnight cultures (37 °C, TSB) of S. simulans were diluted to OD600 = 0.1 and grown until mid-log phase (OD600 = 0.5–0.8) and collected by centrifugation (2,000 × g, room temperature, 5 min). Cell pellets were washed with buffer (10 mM Tris, 50 mM NaCl and 0.5% w/v glucose at pH = 7.2), resuspended to OD600 = 10 and stored at 4 °C until use. All assays were performed on a Cary Eclipse (FL0904M005) fluorometer. Measurements were done using bacterial suspensions at OD600 = 0.05 in the aforementioned buffer under constant stirring at 20 °C in a 4 × 10 mm quartz cuvette. About 0.2 µM 3,3′-diethylthiadicarbocyanine iodide or 0.25 µM SYTOX green was added and equilibrated for 2 min before addition of an antibiotic. For 3,3′-diethylthiadicarbocyanine iodide, we used excitation and emission wavelengths of 650 nm and 670 nm, respectively, while for SYTOX green, we used 504 nm and 523 nm. About 5 nm slits were used, and fluorescence signal was averaged every 0.3 s.

[8] = tested on: S. simulans; assay: DPH anisotropy membrane fluidity measurements; format: cell-based, Staphylococcus simulans; conditions: intact S. simulans cells, 1 µM plectasin, 37 °C, biological triplicates
Protocol: Preparation of S. simulans stock solutions was done as described above for bacterial permeabilization in PBS. About 1 ml of a cell suspension of OD600 = 0.1 in PBS was treated with 1 µM plectasin and incubated at 37 °C. All assays were performed on a Cary Eclipse (FL0904M005) fluorometer fitted with a manual polarizer accessory (Varian). Measurements were conducted at 37 °C under constant stirring in a 4 × 10 mm quartz cuvette. About 10 µM DPH was added from a 1 mM stock in dimethyl sulfoxide (bringing the final dimethyl sulfoxide concentration to 1 vol%) and incubated for 5 min. Fluorescence was excited with 380 nm light (10 nm slit) and recorded between 430 and 520 nm (10 nm slit) with 0.5 s averaging time and data interval of 1.66 nm per point. Fluorescence anisotropy was calculated using the maximum intensity of each spectrum according to the following equation (where IVV and IVH represent the fluorescence intensity using parallel and orthogonal excitation and emission polarization filters, respectively): r=IVV−IVH/IVV+2IVH

[9] = Confocal microscopy of GUVs doped with Und-NBD-lipid II; conditions: GUVs 0.4 mol% Und-NBD-LII in DOPC, 1 μM antibiotic
Protocol: GUVs were prepared by electroformation using in-house build Teflon cells with two titanium wires as electrodes. About 1 μl of 0.5 mM DOPC with 0.4 mol% NBD–lipid II in 2:1 CHCl3/MeOH was brushed on both electrodes and thoroughly dried under vacuum. Next, the cell was filled with 350 μl 300 mM sucrose, and GUVs were formed by applying an oscillating voltage (sine wave, 2 V, 10 Hz) for 90 min and released from the electrodes (square wave, 2 V, 2 Hz). Microscopy slides were precoated using a 1 mg ml^−1 BSA solution. Slides were filled with 300 μl 300 mM glucose solution, followed by addition of the antibiotic and finally 30–50 μl GUV solution. The GUVs were imaged using a Zeiss LSM 880 confocal microscope with a ×63/1.2NA glycerol objective lens. Green fluorescence (530–545 nm) was detected after excitation with a 488 nm laser.

[10] = tested on: mammalian cells; conditions: cited from earlier work
[11] = HS-AFM oligomerization on supported lipid bilayers doped with lipid II; conditions: DOPC/DOPG (1:1), 1% lipid II, 1 mM Ca^2+
Protocol: HS-AFM imaging was performed on a supported lipid bilayer deposited on mica using an amplitude modulation tapping mode HS-AFM from RIBM (Ando type)[11]. The lipid compositions are as stated in the experimental conditions of the corresponding results. Short cantilevers (∼7 μm) with a nominal spring constant of 0.15 N m^−1 were used (USC-F1.2-k0.15, NanoWorld) for all experiments. A minimal imaging force was applied by using a small set-point amplitude, typically 80% of the free amplitude (for 1–2 nm of free amplitude). […] Imaging was started on the lipid bilayer surface in recording buffer. […] All reported experiments were repeated for at least three times for each condition. Image analysis was done using Igor Pro version 6.22 (Wavemetrics) with RIBM script and ImageJ version 1.501 with minimal image corrections (tilt, drift and background corrections). The time stamps on HS-AFM videos are relative to plectasin addition into the liquid chamber. Image acquisition rate varied from 0.5 frames per second to 2 frames per second (see the figure/video legends).

With `CC[C@H](C)[C@@H]1NC(=O)[C@H](CO)NC(=O)[C@H](CCCCN)NC(=O)[C@@H]2CSSC[C@@H](C(=O)N[C@@H](Cc3ccc(O)cc3)C(=O)O)NC(=O)[C@H](CCCCN)NC(=O)[C@@H]3CSSC[C@H](NC(=O)[C@H](CCC(N)=O)NC(=O)[C@H](CCSC)NC(=O)[C@H](CC(=O)O)NC(=O)[C@H](CC(=O)O)NC(=O)[C@H](CCC(=O)O)NC(=O)[C@H](CC(=O)O)NC(=O)[C@H](Cc4c[nH]c5ccccc45)NC(=O)[C@@H]4CCCN4C(=O)CNC(=O)[C@H](CC(N)=O)NC(=O)[C@@H](NC(=O)CNC(=O)[C@H](Cc4ccccc4)NC(=O)CN)CSSC[C@H](NC(=O)[C@H](Cc4ccc(O)cc4)NC(=O)CNC(=O)CNC(=O)[C@H](CCCCN)NC(=O)[C@H](Cc4ccc(O)cc4)NC(=O)CNC(=O)[C@H](CCCCN)NC1=O)C(=O)N[C@@H](C)C(=O)N[C@@H](CCCCN)C(=O)NCC(=O)NCC(=O)N[C@@H](Cc1ccccc1)C(=O)N[C@@H](C(C)C)C(=O)N3)C(=O)N[C@@H](Cc1c[nH]cn1)C(=O)N[C@@H](CC(N)=O)C(=O)N[C@@H](Cc1c[nH]cn1)C(=O)N2` [Plectasin wt] the “Minimum inhibitory concentration, S. pneumoniae ATCC6305” value [1] was ≤ 0.78 µg/mL, the “Minimum inhibitory concentration, S. pneumoniae serotype 8” value [2] was 1,56 μg/mL and the “Minimum inhibitory concentration, S. pyogenes M3” value [3] was ≤ 0,012 μg/mL. The “improvement of antimicrobial activity with increasing Ca^2+ concentration” value ([4]; Ca^2+ variable assay) was 4-8 fold, the MIC ([4]; Calcium 0 mM) was 12.5 µg/mL and the MIC ([4]; Calcium 0.31 mM) was 1.56 µg/mL. For the same compound, the MIC ([4]; Calcium 0.5 mM) was 1.56 µg/mL, the MIC ([4]; Calcium 0.63 mM) was 1.56 µg/mL and the MIC ([4]; Calcium 1.25 mM) was 1.56 to 3.13 µg/mL. The MIC ([4]; Calcium 2.5 mM) was 3.13 µg/mL, the Kd [5] was 159 ± 69 nM and the Kd [6] was 195 ± 35 nM. The “leakage in S. simulans membranes (in words)” value [7] was “does not cause leakage”, the “DPH fluorescence anisotropy (membrane fluidity)” value [8] was “decrease in the fluorescence anisotropy” and the “lipid II cluster/domain formation on GUVs” value [9] was “cluster formation”. The “toxicity against mammalian cells” value [10] was “lack of plectasin toxicity against mammalian cells”, the “plectasin concentration giving full coverage (AFM)” value [11] was 400 nM and the “plectasin concentration giving partial coverage (AFM)” value [11] was 300 nM. For the same compound, the “plectasin concentration above which supra-structures emerge (AFM)” value ([11]; 10 min after addition) was > 200 nM.
